US20100166701A1, “METHOD FOR TREATING RENAL CELL CARCINOMA USING GLYCOGENOLYSIS INHIBITORS” (priority 2008, published 2010)
“Also recorded” adds a separate entry of the source. Where two headings read alike, the source gives them in different places.

How the values were obtained:
CAKI-2 cells [1] = assay: Glycogen mobilization in glucose-starved CAKI-2 cells; assay type: cell-based, human
Description: Caki-2 cells loose glycogen when starved of glucose in the media and not when there was abundant glucose (p<0.05). As proposed in the invention glycogen reserves are responsive to the metabolic status of the carcinoma cell and are mobilized in response to metabolic stress.
We also tested whether glycogen mobilization could be inhibited pharmacologically (FIG. 6B). We therefore treated glucose-starved CAKI-2 cells with two types of glycogenolysis inhibitor: CP-316819 (▪), which inhibits glycogen phosphorylase and NN-DNJ (♦), which inhibits lysosomal glycogen breakdown. […] After 4 h glycogen loss was restricted to 25% and roughly ⅓^rd was still present after 20 h in glucose free media (p<0.05).

CAKI-2 cells [2] = assay: Cell death by propidium iodide inclusion (FACScan) under nutrient deprivation and azide; assay type: cell-based, human
Protocol: The invention was tested in an in vitro model. CAKI-2 cells were pre-incubated in the presence of 300 μM desferrioximine (DFO, solid line) in RPMI1640 and 10% fetal calf serum to induce the accumulation of glycogen. After 16 hours the media was changed to DMEM with 0 mM glucose and 0 mM pyruvate for 4 hours, to mimic the absence of nutrient as present in the interior of a tumor or resulting from treatment with anti-angiogenic inhibitors, increasing concentrations of sodium azide (0 to 100 mM) to mimic the absence of oxygen, and the presence or absence of 60 μM CP-316819 to specifically target glycogenolysis (CP, closed circles). Cells were then trypsinized, collected, treated with 0.1 mg propidium iodide in KRBH buffer (25 mM HEPES 7.4, 120 mM NaCl, 4.6 mM KCl, 1.9 mM CaCl2, 1 mM MgSO4, and 1.2 mM KH2PO4), and analyzed for cell death by measuring inclusion of propidium iodide on a FACScan instrument ([…]).

RCC [3] = conditions: high dose, cited from earlier work
human Caki-2 RCC cells = assay: Induction of glycogenosis in Caki-2 RCC cells by activators of the hypoxia pathway; assay type: cell-based
Protocol: To test this hypothesis it was first necessary to establish an in vitro model of glycogenosis in a relevant clear cell renal cell carcinoma (ccRCC) cell type (CAKI-2 cells). It was first necessary to induce levels of glycogenosis similar to those measured in human disease. We obtained human RCC biopsies (FIG. 4 B) and compared glycogen levels with neighboring grossly uninvolved tissue (GU). […] We treated human Caki-2 RCC cells with known activators of hypoxia pathway in 20 mM glucose for 24 h: 100 μM cobalt chloride, 100 μM desferrioxamine (DFO), and hypoxia (pO2=1%) (FIG. 4 A).
We therefore repeated the induction of glycogenosis with DFO after prior treatment with HIF-1α RNAi (FIG. 5).

HIF protein = assay: Immunoblot of HIF protein levels in Caki-2 cells; assay type: cell-based, human; conditions: 100 μM, 20 mM glucose, 24 h
Protocol: To test this hypothesis it was first necessary to establish an in vitro model of glycogenosis in a relevant clear cell renal cell carcinoma (ccRCC) cell type (CAKI-2 cells). It was first necessary to induce levels of glycogenosis similar to those measured in human disease. We obtained human RCC biopsies (FIG. 4 B) and compared glycogen levels with neighboring grossly uninvolved tissue (GU). There was a […] induction of glycogen levels in human RCC (1±1 to 230±40 μg glucose/mg protein, p<0.01). We treated human Caki-2 RCC cells with known activators of hypoxia pathway in 20 mM glucose for 24 h: 100 μM cobalt chloride, 100 μM desferrioxamine (DFO), and hypoxia (pO2=1%) (FIG. 4 A).

pancreatic tumor cells = conditions: cited from earlier work
[4] = cited from earlier work
RCC [5] = conditions: clinical trials; cited from earlier work
prostate cancer cells = conditions: cited from earlier work
[6] = 100 μM, 20 mM glucose, 24 h, Caki-2 cells

Q: Which glycogen loss (CAKI-2 cells [1]; after 4 h, glucose-starved CAKI-2 cells) does the source give for CP-316819 here?
A: Its glycogen loss is 25%.

Q: And the “glycogen still present (fraction)” value (CAKI-2 cells [1]; after 20 h in glucose free media)?
A: Its value is “roughly ⅓”.

Q: And the “reducing glycogen breakdown (comparison of the two inhibitors)” value (CAKI-2 cells [1]; glucose-starved CAKI-2 cells)?
A: The value was “most effective at reducing glycogen breakdown”.

Q: And the “protection of glycogen-loaded cells against cell death” value (CAKI-2 cells [2]; 60 μM CP-316819, DFO-pretreated cells, 0 mM glucose, 0 mM pyruvate, 4 hours, sodium azide)?
A: The value was “this protection is lost; also recorded: removed that protection”.

Q: Which survival (RCC [3]; after three years) does the source give for “bevacizumab: humanized monoclonal antibody, VEGF receptor antagonist” here?
A: The survival was “no difference in survival”.

Q: What about the response (RCC [3]) of the same molecule?
A: Its response is 30%.

Q: Which results are given for CC(=O)N(O)CCCCCNC(=O)CCC(=O)N(O)CCCCCNC(=O)CCC(=O)N(O)CCCCCN [DFO, desferrioxamine]?
A: glycogen level (glycogenosis) (human Caki-2 RCC cells; [6]): 320±90 μg glucose/mg protein; increase of glycogen levels (human Caki-2 RCC cells; CAKI-2 cells, DFO treatment): 9 fold; stabilization of HIF protein levels (HIF protein): able to stabilize HIF protein levels; resistance to cell death (CAKI-2 cells [2]; pre-incubated 300 μM DFO 16 hours, 100 mM azide, 0 mM glucose 4 hours): significantly resistant to cell death

Q: Which “flux into fatty acid synthesis and the pentose phosphate cycle” value (pancreatic tumor cells; concentrations below those required for anti-proliferative and pro-apoptotic effects) does the source give for O=C(N[C@@H](Cc1ccc(F)cc1)C(=O)N1CCC(O)CC1)c1cc2cc(Cl)ccc2[nH]1 [CP-320626] here?
A: Its value is “inhibited”.

Q: And the “flux of glucose through the TCA cycle” value (pancreatic tumor cells; pancreatic tumor cells)?
A: The value was “decreased”.

Q: For CCCCCCCCCN1C[C@H](O)[C@@H](O)[C@H](O)[C@H]1CO [NN-DNJ, N-(n-Nonyl)deoxynojirimycin], which “duration of sustained increases in hepatic glycogen levels” value ([4]; mice) is on record?
A: The value was “at least 120 days”.

Q: What about the body weight ([4]; mouse, in vivo) of the same molecule?
A: Its body weight is “did not lose body weight”.

Q: What about the hypoglycemia ([4]; mouse, in vivo) of the same molecule?
A: Its hypoglycemia is “did not suffer hypoglycemia below normal fasting levels”.

Q: What does the source list for CCN(CC)CCNC(=O)c1c(C)[nH]c(/C=C2\C(=O)Nc3ccc(F)cc32)c1C [sunitinib malate]?
A: median increase in survival (RCC [5]): 16.4 months; response (RCC [5]): 24% to 40%; stable disease, additional patients (RCC [5]): 27% to 46%

Q: Which glycogen content (prostate cancer cells) does the source give for CN(C)C(=O)[C@H](O)[C@H](Cc1ccccc1)NC(=O)c1cc2cc(Cl)ccc2[nH]1 [CP-91149] here?
A: Its glycogen content is “two-fold increase”.

Q: What about the “reduction in cell number” value (prostate cancer cells) of the same molecule?
A: The value was 50%.

Q: Which DFO-dependent glycogen accumulation (human Caki-2 RCC cells; incubated in 150 μM ferric ammonium citrate) does the source give for ferric ammonium citrate here?
A: The DFO-dependent glycogen accumulation was “did not occur”.

Q: For [Cl][Co][Cl] [cobalt chloride], which “induction of glycogenosis to a level equivalent to human RCC biopsies” value (human Caki-2 RCC cells; [6]) is on record?
A: Its value is “Only DFO, the iron chelator, was able to induce glycogenosis”.

Q: What about the “stabilization of HIF protein levels” value (HIF protein) of the same molecule?
A: Its value is “only DFO was able to stabilize HIF protein levels”.
